Laboratory results: patent US6436945B2, “Substituted O6-benzyl-8-aza-guanines” (The United States of America as represented by the of …, priority 1994, dated 2002)
Values belong to the compound of their own block, whether it stands above or below them.

Assays:
HT-29 colon cancer cells = assay: Killing of HT-29 colon cancer cells by BCNU combined with AGT inactivators (colony formation); conditions: for Colony Formation per 1000 cells: HT-29
Protocol: (§1) Cells were treated for 2 h with AGT inactivator prior to exposure to BCNU.

[1] = system: DU-145 prostate cancer cells; assay: Killing of DU-145 prostate cancer cells by BCNU combined with AGT inactivators (colony formation)
Protocol: as §1

[2] = system: MCF-71 breast cancer cells; assay: Killing of MCF-71 breast cancer cells by BCNU combined with AGT inactivators (colony formation)
Protocol: as §1

[3] = molecular target: T1, O^6-alkylguanine-DNA alkyltransferase (AGT) (Homo sapiens, UniProt P16455); assay: AGT inactivation in intact HT29 cells; conditions: for ratio of ED50 values in cell-free extracts/intact cells: HT29; for AGT inactivating activity in intact HT29 cells, in words: comparison
T1 sequence (P16455 1-207): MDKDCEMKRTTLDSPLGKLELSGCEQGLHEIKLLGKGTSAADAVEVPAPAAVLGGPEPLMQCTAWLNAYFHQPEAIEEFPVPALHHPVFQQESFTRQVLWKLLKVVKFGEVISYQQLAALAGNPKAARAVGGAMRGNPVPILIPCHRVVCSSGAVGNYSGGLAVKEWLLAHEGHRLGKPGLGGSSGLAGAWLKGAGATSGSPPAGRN
Protocol: (§2) The data represent the dose of compound required to produce 50% inactivation in cell-free extracts upon incubation for 30 min or in cells upon incubation for 4 hr.

[4] = molecular target: T1, O^6-alkylguanine-DNA alkyltransferase (AGT); assay: AGT inactivation in HT29 cell-free extract; conditions: for AGT inactivating activity in HT29 cell-free extracts, in words: comparison
Protocol: as §2

[5] = BCNU 40 μM, statement covers HT29, DU-145 and MCF-71 cells (Tables 3-5)

SMILES: O=NN(CCCl)C(=O)NCCCl [BCNU, 1,3-bis(2-chloroethyl)-1-nitrosourea, reference compound]
Colony Formation per 1000 cells (HT-29 colon cancer cells; no inactivator, BCNU 40 μM): 442 ± 34 per 1000 cells
effect of agent alone on cell colony number, in words (HT-29 colon cancer cells; statement covers HT29, DU-145 and MCF-71 cells (Tables 3-5)): no significant effect on cell colony number
Colony Formation per 1000 cells ([1]; no inactivator, BCNU 40 μM): 394 ± 76 per 1000 cells
Colony Formation per 1000 cells ([2]; no inactivator, BCNU 40 μM): 364 ± 60 per 1000 cells

EC50 [3]: 2000 nM
EC50 [4]: 700 nM
SMILES: Nc1nc(OCc2ccccc2)c2nc(N)[nH]c2n1 [Compound 1a, 8-Amino-O^6-benzylguanine]
enhancement of BCNU cytotoxicity, in words (HT-29 colon cancer cells; [5]): comparatively low activity
Colony Formation per 1000 cells (HT-29 colon cancer cells; inactivator 1 μM, BCNU 40 μM): 475 ± 26 per 1000 cells
Colony Formation per 1000 cells (HT-29 colon cancer cells; inactivator 10 μM, BCNU 40 μM): 430 ± 41 per 1000 cells
Colony Formation per 1000 cells (HT-29 colon cancer cells; inactivator 10 μM, BCNU none): 504 ± 30 per 1000 cells
Colony Formation per 1000 cells ([1]; inactivator 1 μM, BCNU 40 μM): 295 ± 45 per 1000 cells
Colony Formation per 1000 cells ([1]; inactivator 10 μM, BCNU 40 μM): 435 ± 70 per 1000 cells
Colony Formation per 1000 cells ([1]; inactivator 10 μM, BCNU none): 380 ± 36 per 1000 cells
Colony Formation per 1000 cells ([2]; inactivator 10 μM, BCNU 40 μM): 95 ± 8 per 1000 cells
Colony Formation per 1000 cells ([2]; inactivator 10 μM, BCNU none): 432 ± 36 per 1000 cells

EC50 [3]: 100 nM
EC50 [4]: 300 nM
SMILES: Cc1nc2c(OCc3ccccc3)nc(N)nc2[nH]1 [Compound 1b, O^6-benzyl-8-methylguanine]
Colony Formation per 1000 cells (HT-29 colon cancer cells; inactivator 1 μM, BCNU 40 μM): 230 ± 51 per 1000 cells
Colony Formation per 1000 cells (HT-29 colon cancer cells; inactivator 10 μM, BCNU 40 μM): <1 per 1000 cells
Colony Formation per 1000 cells (HT-29 colon cancer cells; inactivator 10 μM, BCNU none): 513 ± 76 per 1000 cells
Colony Formation per 1000 cells ([1]; inactivator 1 μM, BCNU 40 μM): 306 ± 157 per 1000 cells
Colony Formation per 1000 cells ([1]; inactivator 10 μM, BCNU 40 μM): 50 ± 7 per 1000 cells
Colony Formation per 1000 cells ([1]; inactivator 10 μM, BCNU none): 357 ± 43 per 1000 cells
Colony Formation per 1000 cells ([2]; inactivator 10 μM, BCNU 40 μM): 2 ± 1 per 1000 cells
Colony Formation per 1000 cells ([2]; inactivator 10 μM, BCNU none): 376 ± 76 per 1000 cells

EC50 [3]: 150 nM
EC50 [4]: 300 nM
SMILES: Nc1nc(OCc2ccccc2)c2[nH]c(=O)[nH]c2n1 [Compound 1c, O^6-Benzyl-8-oxoguanine]
Colony Formation per 1000 cells (HT-29 colon cancer cells; inactivator 1 μM, BCNU 40 μM): 221 ± 15 per 1000 cells
Colony Formation per 1000 cells (HT-29 colon cancer cells; inactivator 10 μM, BCNU 40 μM): <1 per 1000 cells
Colony Formation per 1000 cells (HT-29 colon cancer cells; inactivator 10 μM, BCNU none): 401 ± 22 per 1000 cells
Colony Formation per 1000 cells ([1]; inactivator 1 μM, BCNU 40 μM): 329 ± 43 per 1000 cells
Colony Formation per 1000 cells ([1]; inactivator 10 μM, BCNU 40 μM): 34 ± 3 per 1000 cells
Colony Formation per 1000 cells ([1]; inactivator 10 μM, BCNU none): 379 ± 34 per 1000 cells
Colony Formation per 1000 cells ([2]; inactivator 10 μM, BCNU 40 μM): 4 ± 2 per 1000 cells
Colony Formation per 1000 cells ([2]; inactivator 10 μM, BCNU none): 522 ± 78 per 1000 cells

EC50 [3]: 60 nM
ratio of ED50 values in cell-free extracts/intact cells [3]: 1.6
EC50 [4]: 80 nM
SMILES: Nc1nc(OCc2ccccc2)c2nc(Br)[nH]c2n1 [Compound 1d, O^6-Benzyl-8-bromoguanine]
AGT inactivating activity in intact HT29 cells, in words [3]: somewhat less active in cells than expected
Colony Formation per 1000 cells (HT-29 colon cancer cells; inactivator 1 μM, BCNU 40 μM): 299 ± 30 per 1000 cells
Colony Formation per 1000 cells (HT-29 colon cancer cells; inactivator 10 μM, BCNU 40 μM): 1 ± 0 per 1000 cells
Colony Formation per 1000 cells (HT-29 colon cancer cells; inactivator 10 μM, BCNU none): 401 ± 22 per 1000 cells
Colony Formation per 1000 cells ([1]; inactivator 1 μM, BCNU 40 μM): 267 ± 39 per 1000 cells
Colony Formation per 1000 cells ([1]; inactivator 10 μM, BCNU 40 μM): 16 ± 3 per 1000 cells
Colony Formation per 1000 cells ([1]; inactivator 10 μM, BCNU none): 493 ± 90 per 1000 cells
Colony Formation per 1000 cells ([2]; inactivator 10 μM, BCNU 40 μM): 3 ± 1 per 1000 cells
Colony Formation per 1000 cells ([2]; inactivator 10 μM, BCNU none): 380 ± 109 per 1000 cells
Colony Formation per 1000 cells ([2]; inactivator […], BCNU 40 μM): 4 ± 3 per 1000 cells
AGT inactivating activity in HT29 cell-free extracts, in words [4]: essentially as active as pyrimidines 3d and 3e

EC50 [3]: 60 nM
EC50 [4]: 70 nM
SMILES: Nc1nc(OCc2ccccc2)c2nn[nH]c2n1 [Compound 2, 8-Aza-O^6-benzylguanine]
Colony Formation per 1000 cells (HT-29 colon cancer cells; inactivator 1 μM, BCNU 40 μM): 423 ± 42 per 1000 cells
Colony Formation per 1000 cells (HT-29 colon cancer cells; inactivator 10 μM, BCNU 40 μM): 2 ± 1 per 1000 cells
Colony Formation per 1000 cells (HT-29 colon cancer cells; inactivator 10 μM, BCNU none): 537 ± 48 per 1000 cells
Colony Formation per 1000 cells ([1]; inactivator 1 μM, BCNU 40 μM): 248 ± 21 per 1000 cells
Colony Formation per 1000 cells ([1]; inactivator 10 μM, BCNU 40 μM): 28 ± 5 per 1000 cells
Colony Formation per 1000 cells ([1]; inactivator 10 μM, BCNU none): 452 ± 72 per 1000 cells
Colony Formation per 1000 cells ([2]; inactivator 10 μM, BCNU 40 μM): 2 ± 1 per 1000 cells
Colony Formation per 1000 cells ([2]; inactivator 10 μM, BCNU none): 483 ± 27 per 1000 cells

EC50 [3]: 8000 nM
EC50 [4]: 28000 nM
SMILES: Nc1ncnc(OCc2ccccc2)c1[N+](=O)[O-] [Compound 3a, 4-Amino-6-benzyloxy-5-nitropyrimidine]

EC50 [3]: 5000 nM
EC50 [4]: 15000 nM
SMILES: Nc1cc(OCc2ccccc2)nc(N)n1 [Compound 3b, 2,4-diamino-6-benzyloxypyrimidine]

SMILES: Nc1nc(N)c([N+](=O)[O-])c(OCc2ccccc2)n1 [Compound 3e, 2,4-diamino-6-benzyloxy-5-nitropyrimidine]
enhancement of BCNU cytotoxicity, in words (HT-29 colon cancer cells; [5]): similarly effective at a 4-fold lower dose
Colony Formation per 1000 cells (HT-29 colon cancer cells; inactivator 1 μM, BCNU 40 μM): 45 ± 4 per 1000 cells
Colony Formation per 1000 cells (HT-29 colon cancer cells; inactivator […], BCNU 40 μM): <1 per 1000 cells
Colony Formation per 1000 cells ([1]; inactivator 1 μM, BCNU 40 μM): 59 ± 6 per 1000 cells
Colony Formation per 1000 cells ([2]; inactivator […], BCNU 40 μM): 2 ± 1 per 1000 cells

EC50 [3]: 800 nM
EC50 [4]: 2000 nM
AGT inactivating activity in HT29 cell-free extracts, in words [4]: considerably more active than 3b
SMILES: Nc1nc(N)c(Br)c(OCc2ccccc2)n1 [Compound 3f, 2,4-Diamino-6-benzyloxy-5-bromopyrimidine]

EC50 [3]: 35000 nM
EC50 [4]: 60000 nM
SMILES: O=c1nc(OCc2ccccc2)c2[nH]cnc2[nH]1 [Compound 4a, O^6-Benzylxanthine]

EC50 [3]: 45000 nM
EC50 [4]: 25000 nM
SMILES: O=c1nc(OCc2ccccc2)c2[nH]c(=O)[nH]c2[nH]1 [Compound 4b, O^6-Benzyluric acid]

EC50 [3]: 12000 nM
EC50 [4]: 48000 nM
SMILES: Fc1nc(OCc2ccccc2)c2nc[nH]c2n1 [Compound 4c, O^6-benzyl-2-fluorohypoxanthine]

EC50 [3]: 11000 nM
EC50 [4]: 65000 nM
SMILES: CC(=O)Nc1nc(OCc2ccccc2)c2[nH]c(=O)[nH]c2n1 [Compound 4d, N^2-Acetyl-O^6-benzyl-8-oxoguanine]

EC50 [3]: 60000 nM
EC50 [4]: 160000 nM
SMILES: CNc1nc(OCc2ccccc2)c2nc[nH]c2n1 [Compound 4e, O^6-Benzyl-N^2-methylguanine]

EC50 [3]: 110000 nM
EC50 [4]: 200000 nM
SMILES: CN(C)c1nc(OCc2ccccc2)c2nc[nH]c2n1 [Compound 4f, O^6-Benzyl-N^2,N^2-dimethylguanine]

EC50 [3]: 50 nM
AGT inactivating activity in intact HT29 cells, in words [3]: quite active in cells
EC50 [4]: 400 nM
AGT inactivating activity in HT29 cell-free extracts, in words [4]: much more active than 3a
SMILES: Nc1ncc([N+](=O)[O-])c(OCc2ccccc2)n1 [Compound 5a, 2-Amino-4-benzyloxy-5-nitropyrimidine]

EC50 [3]: 60 nM
AGT inactivating activity in intact HT29 cells, in words [3]: quite active in cells
EC50 [4]: 400 nM
SMILES: Cc1nc(N)nc(OCc2ccccc2)c1[N+](=O)[O-] [Compound 5b, 2-Amino-4-benzyloxy-6-methyl-5-nitropyrimidine]

EC50 [3]: 1000 nM
EC50 [4]: 4000 nM
AGT inactivating activity in HT29 cell-free extracts, in words [4]: considerably more active than 3b
SMILES: Nc1nc(N)nc(OCc2ccccc2)n1 [Compound 6, 2,4-Diamino-6-benzyloxy-s-triazine]

EC50 [3]: 80 nM
ratio of ED50 values in cell-free extracts/intact cells [3]: 6.3
EC50 [4]: 500 nM
SMILES: Cn1nnc2c(OCc3ccccc3)nc(N)nc21 [Compound 8a, 8-Aza-O^6-benzyl-9-methylguanine]
AGT inactivating activity in intact HT29 cells, in words [3]: significantly higher than their activity in cell-free extracts

EC50 [3]: 250 nM
ratio of ED50 values in cell-free extracts/intact cells [3]: 7.2
EC50 [4]: 1900 nM
SMILES: Cn1c(Br)nc2c(OCc3ccccc3)nc(N)nc21 [Compound 10a, O^6-Benzyl-8-bromo-9-methylguanine]
AGT inactivating activity in intact HT29 cells, in words [3]: significantly higher than their activity in cell-free extracts
